Read-outs that look alike come from different tables or passages of the source. One block for each compound: values may come before it.
Experiments:
[1] = tested on: H23 cells; assay: H23 Cellular Proliferation Assay (CellTiter-Glo); assay type: cell-based; conditions: Homo sapiens, NCI-H23, 96 h, 4 days, read-out: H23 CTG IC50
Experimental: H23 Cellular Proliferation Assay
Cells were treated with compounds diluted in DMSO and a 9 point 5-fold serial dilutions. Plates were placed in 37° C., 5% CO2 for to incubate for 4 days. Before they were developed by adding 100 μL of CellTiter-Glo reagent (Promega) to the assay plate, plates were shaken briefly for 2 mins and allowed to incubate at rt for 10 mins. The plates are read with a M5e plate reader according to CellTiter-Glo protocol. The GraphPad Prism software is used to get IC50 values.

[2] = molecular target: Wee1 kinase (Homo sapiens, UniProt P30291); assay: Wee1 Binding Assay (FRET)
Wee1 kinase, sequence (P30291 whole entry): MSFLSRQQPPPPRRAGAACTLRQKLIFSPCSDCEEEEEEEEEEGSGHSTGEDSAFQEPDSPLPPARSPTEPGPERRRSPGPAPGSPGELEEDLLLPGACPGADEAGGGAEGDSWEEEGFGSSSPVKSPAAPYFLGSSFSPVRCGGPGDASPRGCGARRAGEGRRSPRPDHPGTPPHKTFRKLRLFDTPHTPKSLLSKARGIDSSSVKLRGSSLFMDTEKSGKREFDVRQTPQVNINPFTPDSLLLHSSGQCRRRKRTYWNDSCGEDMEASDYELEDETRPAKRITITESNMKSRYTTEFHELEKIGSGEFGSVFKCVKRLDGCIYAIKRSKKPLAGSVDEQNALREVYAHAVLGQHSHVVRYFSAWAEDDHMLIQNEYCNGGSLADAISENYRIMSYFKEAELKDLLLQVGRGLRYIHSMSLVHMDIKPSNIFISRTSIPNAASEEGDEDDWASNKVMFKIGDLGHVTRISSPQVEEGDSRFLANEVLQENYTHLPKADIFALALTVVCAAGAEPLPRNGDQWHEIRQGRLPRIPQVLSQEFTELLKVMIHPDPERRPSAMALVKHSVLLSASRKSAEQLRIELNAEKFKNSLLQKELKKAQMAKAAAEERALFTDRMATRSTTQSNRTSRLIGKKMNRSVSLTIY
Experimental: Wee 1 kinase was determined by using Fluorescence Resonance Energy Transfer (FRET) assay. […] The plate was shaken for 30 seconds, incubated for 60 min at RT, and recorded on fluorescence plate reader.

SMILES: C=CCn1c(=O)c2cnc(Nc3ccc(N4CCNCC4)c(C)c3)nc2n1-c1ccc2c(n1)[C@](O)(CC)CC2 (single isomer, unassigned) [Example 13A]
IC50 [1]: 0.1 to 1 µM

IC50 [2]: < 0.01 µM
SMILES: C=CCn1c(=O)c2cnc(Nc3ccc(N4CCN(C)CC4)cc3)nc2n1-c1ccc2c(c1)[C@](C)(O)CC2 (single isomer, unassigned) [Example 21B]
IC50 [1]: 0.1 to 1 µM

SMILES: C=CCn1c(=O)c2cnc(Nc3ccc(N4CCN(C)CC4)cc3)nc2n1-c1cc(F)c2c(c1)[C@@](C)(O)CC2 (single isomer, unassigned) [Example 24A]
IC50 [1]: 0.1 to 1 µM

SMILES: C=CCn1c(=O)c2cnc(Nc3ccc(N4CCN(C)CC4)cc3)nc2n1-c1ccc2c(n1)[C@](C)(O)CC2 (single isomer, unassigned) [Example 2B]
IC50 [2]: < 0.01 µM
IC50 [1]: 0.1 to 1 µM

IC50 [2]: < 0.01 µM
SMILES: C=CCn1c(=O)c2cnc(Nc3ccc(N4CCN(C)CC4)cc3)nc2n1-c1ccc2c(n1)C(F)(F)CC2 [Example 8, 2-Allyl-1-(7,7-difluoro-6,7-dihydro-5H-cyclopenta[b]pyridin-2-yl)-6-((4-(4-methylpiperazin-1-yl)phenyl)amino)-1,2-dihydro-3H-pyrazolo[3,4-d]pyrimidin-3-one]
IC50 [1]: 0.1 to 1 µM

IC50 [2]: < 0.01 µM
SMILES: C=CCn1c(=O)c2cnc(Nc3ccc(N4CCN(C)CC4)cc3)nc2n1-c1ccc2c(n1)[C@@](O)(C(F)(F)F)CC2 (single isomer, unassigned) [Example 3B]
IC50 [1]: 0.1 to 1 µM

SMILES: C=CCn1c(=O)c2cnc(Nc3ccc(N4CCN(C)CC4)cc3)nc2n1-c1ccc2c(n1)[C@@](C)(O)CC2 (single isomer, unassigned) [Example 2A]
IC50 [2]: < 0.01 µM
IC50 [1]: > 1 µM

SMILES: C=CCn1c(=O)c2cnc(Nc3ccc(N4CCN(C)CC4)cc3)nc2n1-c1cccc(C(C)(C)O)n1 [AZD1775, 2-allyl-1-(6-(2-hydroxypropan-2-yl)pyridin-2-yl)-6-(4-(4-methylpiperazin-1-yl)phenylamino)-1,2-dihydropyrazolo[3,4-d]pyrimidin-3-one, reference compound]
IC50 [1]: 0.1 to 1 µM

IC50 [2]: < 0.01 µM
SMILES: C=CCn1c(=O)c2cnc(Nc3ccc(N4CCN(C)CC4)c(C)c3)nc2n1-c1ccc2c(n1)[C@](O)(CC)CC2 (single isomer, unassigned) [Example 12A]
IC50 [1]: 0.1 to 1 µM

SMILES: C=CCn1c(=O)c2cnc(Nc3ccc(N4CCN(C)CC4)cc3)nc2n1-c1ccc2c(n1)[C@](O)(C1CC1)CC2 (single isomer, unassigned) [Example 16A]
IC50 [1]: 0.1 to 1 µM

IC50 [2]: < 0.01 µM
SMILES: C=CCn1c(=O)c2cnc(Nc3ccc(N4CCN(C)CC4)cc3)nc2n1-c1ccc2c(n1)[C@](O)(C(F)(F)F)CC2 (single isomer, unassigned) [Example 3A]
IC50 [1]: > 1 µM

SMILES: C=CCn1c(=O)c2cnc(Nc3ccc(N4CCN(C)CC4)cc3)nc2n1-c1ccc2c(n1)[C@](O)(C(F)(F)F)CO2 (single isomer, unassigned) [Example 6A]
IC50 [1]: > 1 µM

SMILES: C=CCn1c(=O)c2cnc(Nc3ccc(N4CCN(C)CC4)c(C)c3)nc2n1-c1ccc2c(c1)[C@@](C)(O)CC2 (single isomer, unassigned) [Example 23A]
IC50 [1]: 0.1 to 1 µM

SMILES: C=CCn1c(=O)c2cnc(Nc3ccc(N4CCN(C)[C@@H](C)C4)cc3)nc2n1-c1ccc2c(n1)[C@](C)(O)CC2 (single isomer, unassigned) [Example 17B]
IC50 [1]: 0.1 to 1 µM

SMILES: C=CCn1c(=O)c2cnc(Nc3ccc(N4CCN(C)C[C@@H]4C)cc3)nc2n1-c1ccc2c(n1)[C@](C)(O)CC2 (single isomer, unassigned) [Example 19B]
IC50 [1]: 0.1 to 1 µM

SMILES: C=CCn1c(=O)c2cnc(Nc3ccc(N4CCN(C)CC4)cc3)nc2n1-c1ccc2c(n1)[C@@](O)(C(F)(F)F)CO2 (single isomer, unassigned) [Example 6B]
IC50 [1]: 0.1 to 1 µM

SMILES: C=CCn1c(=O)c2cnc(Nc3ccc(N4CCN(C)CC4)cc3)nc2n1-c1cc2c(cn1)CC[C@@]2(C)O (single isomer, unassigned) [Example 37B]
IC50 [1]: > 1 µM

IC50 [2]: < 0.01 µM
SMILES: C=CCn1c(=O)c2cnc(Nc3ccc(N4CCN(C)CC4)cc3)nc2n1-c1ccc2c(n1)[C@H](O)CC2 (single isomer, unassigned) [Example 1B]

SMILES: C=CCn1c(=O)c2cnc(Nc3ccc(N4CCN(C)C[C@H]4C)cc3)nc2n1-c1ccc2c(n1)[C@@](C)(O)CC2 (single isomer, unassigned) [Example 20A]
IC50 [1]: > 1 µM

IC50 ([2]; FRET, Wee1 kinase 2 nM, tracer 178 50 nM, 60 min at RT, read-out: Wee1 enzymatic IC50): < 0.01 µM
SMILES: C=CCn1c(=O)c2cnc(Nc3ccc(N4CCN(C)CC4)cc3)nc2n1-c1ccc2c(n1)C(=O)NC2 [Example 34, 2-allyl-6-((4-(4-methylpiperazin-1-yl)phenyl)amino)-1-(7-oxo-6,7-dihydro-5H-pyrrolo[3,4-b]pyridin-2-yl)-1,2-dihydro-3H-pyrazolo[3,4-d]pyrimidin-3-one]

SMILES: C=CCn1c(=O)c2cnc(Nc3ccc(N4CCN(C)[C@H](C)C4)cc3)nc2n1-c1ccc2c(n1)[C@@](C)(O)CC2 (single isomer, unassigned) [Example 18A]
IC50 [1]: 0.1 to 1 µM

SMILES: C=CCn1c(=O)c2cnc(Nc3ccc4c(ccn4C4CCN(C)CC4)c3)nc2n1-c1ccc2c(n1)[C@](O)(CC)CC2 (single isomer, unassigned) [Example 39A]
IC50 [1]: 0.1 to 1 µM

SMILES: C=CCn1c(=O)c2cnc(Nc3ccc(N4CCN(C)CC4)cc3)nc2n1-c1ccc2c(n1)[C@](C)(NC(C)=O)CCC2 (single isomer, unassigned) [Example 41B]
IC50 [1]: > 1 µM

SMILES: C=CCn1c(=O)c2cnc(Nc3ccc(N4CCNCC4)c(C)c3)nc2n1-c1ccc2c(n1)[C@@](O)(CC)CC2 (single isomer, unassigned) [Example 13B]
IC50 [1]: < 0.1 µM

SMILES: C=CCn1c(=O)c2cnc(Nc3ccc(N4CCN(C)CC4)cc3)nc2n1-c1cc(F)c2c(c1)[C@](C)(O)CC2 (single isomer, unassigned) [Example 24B]
IC50 [1]: 0.1 to 1 µM

SMILES: C=CCn1c(=O)c2cnc(Nc3ccc(N4CCNCC4)cc3)nc2n1-c1ccc2c(n1)[C@@](O)(CC)CC2 [Example 14, (R)-2-allyl-1-(7-ethyl-7-hydroxy-6,7-dihydro-5H-cyclopenta[b]pyridin-2-yl)-6-((4-(piperazin-1-yl)phenyl)amino)-1,2-dihydro-3H-pyrazolo[3,4-d]pyrimidin-3-one]
IC50 [1]: 0.1 to 1 µM

SMILES: C=CCn1c(=O)c2cnc(Nc3ccc(N4CCN(C)CC4)cc3)nc2n1-c1cc2c(cn1)CC[C@]2(C)O (single isomer, unassigned) [Example 37A]
IC50 [1]: > 1 µM

SMILES: C=CCn1c(=O)c2cnc(Nc3ccc4c(c3)CNCC43CC3)nc2n1-c1ccc2c(n1)[C@](C)(O)CCC2 (single isomer, unassigned) [Example 31B]
IC50 [1]: < 0.1 µM

SMILES: C=CCn1c(=O)c2cnc(Nc3ccc(N4CCN(C)CC4)cc3)nc2n1-c1ccc2c(n1)[C@@](C)(NC(C)=O)CCC2 (single isomer, unassigned) [Example 41A]
IC50 [1]: > 1 µM

SMILES: C=CCn1c(=O)c2cnc(Nc3ccc4c(c3)CNCC43CC3)nc2n1-c1ccc2c(n1)[C@@](C)(O)CCC2 (single isomer, unassigned) [Example 31A]
IC50 [1]: < 0.1 µM

SMILES: C=CCn1c(=O)c2cnc(Nc3ccc(N4CCN(C)CC4)cc3)nc2n1-c1ccc2c(c1)[C@](O)(CC)CO2 (single isomer, unassigned) [Example 5A]
IC50 [1]: > 1 µM

SMILES: C=CCn1c(=O)c2cnc(Nc3ccc(N4CCN(C)CC4)c(C)c3)nc2n1-c1ccc2c(c1)[C@](C)(O)CC2 (single isomer, unassigned) [Example 23B]
IC50 [1]: < 0.1 µM

SMILES: C=CCn1c(=O)c2cnc(Nc3ccc(C4=CCN(C)CC4)c(C)c3)nc2n1-c1ccc2c(n1)[C@](O)(CC)CC2 (single isomer, unassigned) [Example 40A]
IC50 [1]: 0.1 to 1 µM

SMILES: C=CCn1c(=O)c2cnc(Nc3ccc(N4CCN(C)CC4)cc3)nc2n1-c1ccc2c(n1)[C@](O)(C(C)(F)F)CC2 (single isomer, unassigned) [Example 38A]
IC50 [1]: > 1 µM

SMILES: C=CCn1c(=O)c2cnc(Nc3ccc(N4CCN(C)C[C@H]4C)cc3)nc2n1-c1ccc2c(n1)[C@](C)(O)CC2 (single isomer, unassigned) [Example 20B]
IC50 [1]: 0.1 to 1 µM

SMILES: C=CCn1c(=O)c2cnc(Nc3ccc(N4CCN(C)CC4)cc3)nc2n1-c1ccc2c(n1)[C@@](O)(C(C)(F)F)CC2 (single isomer, unassigned) [Example 38B]
IC50 [1]: 0.1 to 1 µM

SMILES: C=CCn1c(=O)c2cnc(Nc3ccc(C4=CCN(C)CC4)c(C)c3)nc2n1-c1ccc2c(n1)[C@@](O)(CC)CC2 (single isomer, unassigned) [Example 40B]
IC50 [1]: < 0.1 µM

SMILES: C=CCn1c(=O)c2cnc(Nc3ccc(N4CCN(C)C[C@@H]4C)cc3)nc2n1-c1ccc2c(n1)[C@@](C)(O)CC2 (single isomer, unassigned) [Example 19A]
IC50 [1]: > 1 µM

SMILES: C=CCn1c(=O)c2cnc(Nc3ccc(N4CCN(C)CC4)cc3)nc2n1-c1ccc2c(c1)[C@@](O)(CC)CO2 (single isomer, unassigned) [Example 5B]
IC50 [1]: 0.1 to 1 µM

SMILES: C=CCn1c(=O)c2cnc(Nc3ccc(N4CCNCC4)cc3)nc2n1-c1ccc2c(n1)[C@@](C)(O)CCC2 (single isomer, unassigned) [Example 28A]
IC50 [1]: 0.1 to 1 µM

SMILES: C=CCn1c(=O)c2cnc(Nc3ccc(N4CCNCC4)cc3)nc2n1-c1ccc2c(n1)[C@](C)(O)CCC2 (single isomer, unassigned) [Example 28B]
IC50 [1]: 0.1 to 1 µM

SMILES: C=CCn1c(=O)c2cnc(Nc3ccc4c(ccn4C4CCN(C)CC4)c3)nc2n1-c1ccc2c(n1)[C@@](O)(CC)CC2 (single isomer, unassigned) [Example 39B]
IC50 [1]: 0.1 to 1 µM

SMILES: C=CCn1c(=O)c2cnc(Nc3ccc(N4CCN(C)[C@H](C)C4)cc3)nc2n1-c1ccc2c(n1)[C@](C)(O)CC2 (single isomer, unassigned) [Example 18B]
IC50 [1]: 0.1 to 1 µM

SMILES: C=CCn1c(=O)c2cnc(Nc3ccc(N4CCN(C)[C@@H](C)C4)cc3)nc2n1-c1ccc2c(n1)[C@@](C)(O)CC2 (single isomer, unassigned) [Example 17A]
IC50 [1]: 0.1 to 1 µM

From patent publication US11261192B2, “Substituted 1,2-dihydro-3H-pyrazolo[3,4-D]pyrimidin-3-ones” (Recurium IP Holdings, LLC, priority 2018, dated 2022)
